In patent publication US9526766B2, “Potentiation of antibiotic treatment with a protein-lipid complex” (priority 2012, dated 2016):
≈ marks a conversion by molar mass, not a printed value. Read-outs that look alike come from different tables or passages of the source. One block for each compound: values may come before it.

Columns and labels:
Staphylococcus aureus [1] = assay: MIC by broth microdilution, antibiotics with and without ALAFAC; type: cell-based; conditions: for MIC: Staphylococcus aureus
Procedure: (§1) Methodology: Minimal inhibitory concentrations (MICs) were determined in 96-well microtiter plates using the microdilution method according to approved standards of the CLSI except that Todd-Hewitt medium supplemented with 0.5% yeast extract, which yields reproducible MIC results was used as the test medium for S. pneumoniae. For the remaining species Mueller-Hinton medium was used as indicated by the CLSI standard. Each well contained two-fold dilutions of antibiotic, was seeded with a final bacterial concentration of 10^5 CFU/mL, and was incubated for 18 h at 37° C. in a Synergy II microplate reader (Biotek, Winooski, Vt.) where the OD600 was recorded every 5 minutes to monitor bacterial growth. The MIC was defined as the lowest concentration of antimicrobial agent solution at which no increase in OD600 was detected.
In vitro susceptibility tests. Minimal inhibitory concentrations (MICs) were determined in 96-well microtiter plates using the microdilution method according to approved standards of the CLSI as described previously. However, rather than Mueller-Hinton broth, Tryptic soy broth (TSB) was used for susceptibility testing as it is the common media used for Staphylococcal growth, and as it has shown more consistent results for a variety of antimicrobials when tested against Staphylococci. […] A two-fold dilution series of antibiotics in triplicate and in the presence or absence of ALAFAC was prepared in 96 well microtiter plates, and each well was seeded with a final bacterial concentration of 10^5 CFU/mL, and was incubated for 24 h at 37° C. in a Synergy 2 microplate reader (Biotek, Winooski, Vt.) where the Optical Density at 600 nm (OD600) was recorded every 5 minutes to monitor bacterial growth. The MIC was defined as the lowest concentration of antimicrobial agent solution where no increase in OD600 was detected.

NRS 123 Staphylococci = assay: Membrane potential, DiBAC4(3) fluorescence; type: cell-based, Staphylococcus aureus; conditions: Ruthenium Red, Amiloride
Procedure: Assessing membrane potential. Staphylococci grown to late log phase in TSB were pelleted by centrifugation at 2,400×g for 10 minutes and washed twice by resuspension in PBS. The bacterial pellet was resuspended in PBS to half of the original volume and energized with 50 mM glucose for 15 minutes at 37° C. To measure membrane potential of the staphylococcal membrane, 500 nM DiBAC4(3) (bis-(1,3-dibutylbarbituric acid) trimethine oxonol; Molecular Probes, Eugene, Oreg., USA) were added. […] The plate was then placed immediately into a pre-warmed (37° C.) Synergy 2 Multi-Mode Microplate Reader (BioTek) where fluorescence readings from DiBAC4(3) (485/20 nm excitation, 528/20 nm emission) were taken every minute for one hour. The difference in fluorescence intensity between the untreated control and the ALAFAC-treated sample was calculated for the “no inhibitor” samples and for the “inhibitor” samples using the values after 60 minutes. The fluorescence intensity difference for the “inhibitor” samples was then expressed as fold change of the intensity compared with the ALAFAC alone (“no inhibitor”) sample, providing the degree of depolarization compared to the “ALAFAC alone” sample.

NRS 384 Staphylococci = assay: Intracellular pH measurement (BCECF-AM); type: cell-based, Staphylococcus aureus; conditions: ALAFAC 100 μg/mL (6 μM), RuR 30 μM, Amiloride 1 mM
Text: Intracellular pH measurement. A reported protocol for intracellular pH (pHi) measurement was modified and optimized for S. aureus by testing the effect of various dye concentrations and staining times on the measured fluorescence of S. aureus isolate NRS 384 grown to mid-log phase. Cell samples were subjected to increasing concentrations of the membrane-permeant acetoxymehtyl (AM) ester derivative of the dual-excitation ratiometric pH indicator dye BCECF (2′,7′-bis-(2-carboxyethyl)-5-(and-6)-carboxyfluorescein), for 30 minutes at 30° C. Fluorescence was measured as a ratio of fluorescence at 530 nm with dual wavelength excitation at 490 and 440 nm and calibration curves were established for each independent experiment. After testing a number of loading concentrations we observed that the fluorescence ratios remains generally constant when concentrations above 20 μM was used. Therefore 25 μM BCECF-AM was used for all experiments. The optimized staining time, 30 minutes, was determined using the same criteria and was used for all experiments. After loading, the cells were washed twice in PBS by centrifugation and the resulting pellet was resuspended in PBS to the original volume and ALAFAC and ALAFAC/antibiotic combinations were added. CCCP was added as a positive control. CCCP is a lipophilic weak acid that is soluble in the lipid domain of the membrane in both the protonated and deprotonated form. This allows it to act as a protonophore causing an influx of H^+ into the cytoplasm, dissipating both the electrical potential and the H^+ gradient across the inner membrane. For each experiment calibration was performed where cells were resuspended in high [K^+] buffers at different pH values ranging from 6.5 to 8.0.

Streptococcus pneumoniae [2] = assay: MIC by broth microdilution, antibiotics with and without ALAFAC; type: cell-based; conditions: Streptococcus pneumoniae, agent alone, read-out: MIC
Procedure: as §1
In vitro susceptibility tests. Minimal inhibitory concentrations (MICs) were determined in 96-well microtiter plates using the microdilution method according to approved standards of the CLSI except that Todd-Hewitt medium supplemented with 0.5% yeast extract, which yields reproducible MIC results was used as the test medium for S. pneumoniae. MICs for A. baumanni, and M. catarrhalis were determined in MH media. Two-fold dilutions of a starting antibiotic concentration was added in triplicate into microtiter plate wells (in 96-well plates), were seeded with a final bacterial concentration of ˜10^5 colony forming units (CFU)/mL, and was incubated for 18 h in ambient air at 37° C. in a Synergy II microplate reader (Biotek, Winooski, Vt.) where the OD600 was recorded every 5 minutes to monitor bacterial growth. The MIC was defined as the lowest concentration of antimicrobial agent solution at which no increase in OD600 was detected.

Staphylococcus aureus [3] = assay: Minimal bactericidal concentration (MBC) from MIC plates; type: cell-based; conditions: Staphylococcus aureus
Text: The MBC was defined as the lowest concentration of antimicrobials yielding colony counts <0.1% (3 log10 reduction) of the initial inoculum (as determined by colony counts from the growth control well immediately after inoculation) as described.

Streptococcus pneumoniae [4] = assay: Short-time kill assay on planktonic cultures; type: cell-based; conditions: for Minimum antibiotic concentration for bactericidal (>3 log10) activity, planktonic: within 4-6 hours, antibiotic alone; for Bactericidal activity (FIG. 1): 1 hour at 37° C., fatty acids: concentration required to kill versus that associated with the ALAFAC-complex
Procedure: Methodology: In late logarithmic growth phase, the bacteria were harvested by centrifugation at 12,000×g for 10 minutes and resuspended in phosphate-buffered saline (PBS; […], […], […], pH 7.4). Appropriate dilutions of the bacteria were suspended in PBS and treated with indicated concentrations of ALAFAC and/or antibiotics for various times. The effect on bacterial viability was assessed by plating serial dilutions of bacterial sample on tryptic soy agar plates containing 5% sheep blood (viable counts) and determining viable colony forming units after overnight growth at 37° C.
Short-time kill assays. In late logarithmic growth phase, the bacteria were harvested by centrifugation at 12,000×g for 10 minutes and resuspended in phosphate-buffered saline (PBS; 30 mM Na2HPO4, 10 mM KH2PO4, […], pH 7.4). Appropriate concentrations of the bacteria (around 10^8 colony forming units per ml) were suspended in PBS and treated with indicated concentrations of ALAFAC and/or antibiotics for various times. The effect on bacterial viability was assessed by plating serial dilutions of bacterial sample on tryptic soy agar plates containing 5% sheep blood (viable counts) and determining viable CFUs after overnight growth at 37° C.

[5] = test system: Streptococcus pneumoniae biofilms; assay: Static biofilm model, viable counts; type: cell-based; conditions: for Minimum antibiotic concentration for bactericidal (>3 log10) activity on biofilms: within 4-6 hours, antibiotic alone
Procedure: Methodology: Pneumococci were grown statically in CDM and S. aureus were grown in trypic soy medium to mid-logarithmic phase (OD600=0.5), washed, and resuspended in fresh pre-warmed medium to a density of 2×10^4 CFU in 500 μl volume, and suspensions were used to seed sterile round glass coverslips in the bottom of polystyrene 24-well plates with or without a substratum of confluent H292 epithelial cells. Biofilms were cultured at 34° C. in 5% CO2 for indicated times with change of culture media every 12 hours and to assess biomass and antibiotic resistance by viable counts (as described).
Biofilms were then washed in PBS and detached by scraping the surface in the presence of 100 μL PBS followed by a rinse with 100 μL PBS. Collected cells were sonicated in a sonication water bath for 2 s followed by vortexing twice for 20 seconds at high speed and the dispersed biofilm cells were used to determine viable CFUs per ml from diluted samples plated and grown on blood agar.
Static Biofilm Model. Pneumococci were grown in CDM to mid-logarithmic phase (OD600=0.5), washed, and resuspended in fresh pre-warmed medium to a density of 2×10^4 CFUs in 500 μl volume, and suspensions were used to seed sterile round glass coverslips in the bottom of polystyrene 24-well plates with a substratum of confluent H292 epithelial cells as described. Biofilms were cultured at 34° C. in 5% CO2 for indicated times with change of culture media every 12 hours and used for SEM studies or to assess biomass and antibiotic resistance by viable plate counts.
Biofilms were then washed in PBS, dispersed by sonication, and collected by pipetting in 100 μL PBS followed by a rinse with 100 μL PBS. Collected cells were then vortexed twice for 20 seconds at high speed and the dispersed biofilm cells were used to determine viable CFUs per ml from diluted samples plated and grown on blood agar. Results are reported as the total number of CFUs per biofilm.

[6] = test system: Staphylococcus aureus biofilms; assay: Static biofilm model, viable counts; type: cell-based; conditions: NRS 1 (VISA) and NRS 384 (VSSA) biofilms; 24 hours; vancomycin 32 μg/mL (21 μM) alone or with ALAFAC
Procedure: Static Biofilm Model. Staphylococci were grown in TSB to mid-logarithmic phase (OD600=0.5), washed, and resuspended in fresh pre-warmed medium to a density of 2×10^4 CFU in 500 μl volume, and suspensions were used to seed polystyrene 24-well plates. Bacteria were cultured at 37° C. for 12 hours, after which biofilms were washed with PBS to eliminate planktonic bacteria and were exposed to TSB with indicated concentrations of ALAFAC and/or antibiotics for 24 hours at 37° C. Biofilms were then washed in PBS, sonicated and detached by scraping the surface in the presence of 100 μL PBS followed by a rinse with 100 μL PBS. Collected cells were vortexed twice for 20 seconds at high speed and the dispersed biofilm cells were first observed by microscopy to ensure proper dispersion and then diluted in a 10-fold dilution series where 100 μl of each dilution was plated on blood agar plates to determine viable CFUs per ml after overnight growth at 37° C. Colony counts from plates carrying 20-200 colonies were used to determine the viable counts and are reported as the total number of colony-forming units per biofilm.

Effect of inhibitor on ALAFAC antibiotic potentiation in MIC assay (Staphylococcus aureus [1]; NRS 123, methicillin + ALAFAC, Ruthenium Red 30 μM, Amiloride 1 mM): completely abolished
SMILES: N=C(N)NC(=O)c1nc(Cl)c(N)nc1N [Amiloride]
Effect of inhibitor on ALAFAC-associated membrane depolarization (NRS 123 Staphylococci): completely abolished
Transmembrane proton gradient (intracellular pH) (NRS 384 Staphylococci): did not fully inhibit

MIC (Staphylococcus aureus [1]; S. aureus NRS123, antibiotic alone, read-out: MIC): 0.5 µg/mL
MIC (Staphylococcus aureus [1]; S. aureus NRS384, antibiotic alone, read-out: MIC): 16 µg/mL
MIC (Streptococcus pneumoniae [2]; S. pneumoniae D39): 0.03 µg/mL
MIC (Streptococcus pneumoniae [2]; S. pneumoniae JY53 (erythromycin-resistant)): 3 µg/mL
SMILES: CC[C@H]1OC(=O)[C@H](C)[C@@H](O[C@H]2C[C@@](C)(OC)[C@@H](O)[C@H](C)O2)[C@H](C)[C@@H](O[C@@H]2O[C@H](C)C[C@H](N(C)C)[C@H]2O)[C@](C)(O)C[C@@H](C)C(=O)[C@H](C)[C@@H](O)[C@]1(C)O [Erythromycin, erythromycin]
MBC (Staphylococcus aureus [3]; NRS123, S. aureus NRS123, antibiotic alone, read-out: MBC): 16 µg/mL (≈ 21.8 µM)
MBC (Staphylococcus aureus [3]; NRS384, S. aureus NRS384, antibiotic alone, read-out: MBC): > 256 µg/mL
Short-time killing (Streptococcus pneumoniae [4]; D39, 4 hours, ALAFAC 50 μg/ml, erythromycin 200 μg/ml, alone or combined, 7.2 log10 inoculum): insignificant bactericidal activity
Bactericidal activity alone (Streptococcus pneumoniae [4]; D39 and EF3030, 1 hour, penicillin G up to 5,000 μg/ml, erythromycin up to 1,000 μg/ml): lacked any bactericidal activity
Minimum antibiotic concentration for bactericidal (>3 log10) activity, planktonic (Streptococcus pneumoniae [4]; S. pneumoniae D39): >1,000 μg/ml
Minimum antibiotic concentration for bactericidal (>3 log10) activity, planktonic (Streptococcus pneumoniae [4]; S. pneumoniae JY53): >1000 μg/ml
Biofilm killing ([5]; D39 48 h biofilm (8.7 log10), erythromycin 500 μg/ml alone or with 250 μg/ml ALAFAC): no bactericidal effects
Minimum antibiotic concentration for bactericidal (>3 log10) activity on biofilms ([5]; S. pneumoniae D39 biofilm): >1000 μg/ml
Minimum antibiotic concentration for bactericidal (>3 log10) activity on biofilms ([5]; S. pneumoniae JY53 biofilm): >1000 μg/ml

SMILES: CCCCCCCC/C=C\CCCCCCCC(=O)O [oleic acid]
Bactericidal activity (FIG. 1) (Streptococcus pneumoniae [4]; S. pneumoniae D39): considerably higher

SMILES: CN[C@H](CC(C)C)C(=O)N[C@H]1C(=O)N[C@@H](CC(N)=O)C(=O)N[C@H]2C(=O)N[C@H]3C(=O)N[C@H](C(=O)N[C@H](C(=O)O)c4cc(O)cc(O)c4-c4cc3ccc4O)[C@H](O)c3ccc(c(Cl)c3)Oc3cc2cc(c3O[C@@H]2O[C@H](CO)[C@@H](O)[C@H](O)[C@H]2O[C@H]2C[C@](C)(N)[C@H](O)[C@H](C)O2)Oc2ccc(cc2Cl)[C@H]1O [Vancomycin, vancomycin]
MIC (Staphylococcus aureus [1]; NRS1): 8 µg/mL
MIC (Staphylococcus aureus [1]; NRS384): 1 µg/mL
MBC (Staphylococcus aureus [3]; NRS1): 32 µg/mL (≈ 22.1 µM)
MBC (Staphylococcus aureus [3]; NRS384): 16 µg/mL (≈ 11 µM)
Biofilm killing [6]: almost complete insensitivity

SMILES: CCCCC/C=C\C/C=C\CCCCCCCC(=O)O [linoleic acid]
Bactericidal activity (FIG. 1) (Streptococcus pneumoniae [4]; S. pneumoniae D39): considerably higher
